Source: US20040002069A1, “Hepatic gene expression profiling of streptozotocin-induced diabetes” (The Regents of the University of California, priority 2002, published 2004)

Tests used:
[1] = Blood glucose measurements after streptozotocin injections; type: in vivo, Swiss-Webster mice; conditions: three weekly intraperitoneal injections, 10 mg/100 g body weight; one week after the third injection
Procedure: (§1) Mice and treatment. Female, 8-month old Swiss-Webster mice were purchased from Jackson Laboratories. Diabetes was induced by three weekly intraperitoneal injections of streptozotocin (STZ; 10 mg/100 g body weight) in 50 mM sodium citrate, pH 4.5. […] Only mice with blood glucose levels higher than 3 mg/ml were used. Mice injected with equivalent volumes of sodium citrate at the same times served as controls. Mice were sacrificed one week after the last injection. Mice were fasted for 24 h before sacrifice.

[2] = tested on: hepatic gene expression; test: Hepatic gene expression profiling of streptozotocin-induced diabetes (Affymetrix Mu11KsubA/Mu11KsubB arrays); type: in vivo, Swiss-Webster mice
Procedure: as §1
Measurement of Specific mRNA Levels. Total liver RNA was isolated from frozen tissue fragments using TRI Reagent (Molecular Research Center, Inc., Cincinnati, Ohio) as described previously (Cao et al., Proc. Natl. Acad. Sci. U.S. A. 98:10630-10635 (2001)). Specific mRNA levels were measured using the Affymetrix Mu11KsubA and Mu11KsubB high-density oligonucleotide arrays using standard Affymetrix protocols as described (Cao et al., Proc. Natl. Acad. Sci. U.S. A. 98:10630-10635 (2001)). Briefly, cDNA was prepared from total RNA using Superscript Choice System with a primer containing oligo(dT) and the T7 RNA polymerase promoter sequence. Biotinylated cRNA was synthesized from purified cDNA using the Enzo BioArray High Yield RNA Transcript Labeling Kit (Enzo Biochem), and CRNA purified using RNeasy mini columns (Qiagen, Chatsworth, Calif.). An equal amount of cRNA from each animal was separately hybridized to Mu11KsubA and Mu11ksubB high-density oligonucleotide arrays. The arrays were hybridized for 16 h at 45° C. After hybridization, arrays were washed, stained with streptavidin-phycoerythrin, and scanned using a Hewlett-Packard GeneArray Scanner.
Data Analysis and Statistics. Image analysis and data quantification were performed using the Affymetrix Microarray Suite 5.0. Affymetrix Mu11KsubA and Mu11KsubB arrays contain targets for more than 11,000 mouse genes and expressed sequence tags (ESTs). Each gene or EST is represented on the array by 20 perfectly matched (PM) oligonucleotides and 20 mismatched (MM) control probes that contain a single central-base mismatch. The signal intensities of PM and MM were used to calculate a discrimination score, R, which is equal to (PM−MM)/(PM+MM). A detection algorithm utilized R to generate a detection p-value and assign a Present, Marginal or Absent call using the Wilcoxon signed rank test (Wilcoxon F., Biometrics 1:80-83 (1945); Affymetrix, Inc., New Statistical Algorithms for Monitoring Gene Expression on GeneChip Probe Arrays, Technical Notes 1, Part No. 701097 Rev. 1 (2001)). Only genes that were “Present” in at least 2 out of 3 arrays per experimental group were considered for further analysis. A signal algorithm calculated the relative level of expression of each transcript using the One-Step Tukey's Biweight Estimate (Affymetrix, Inc., New Statistical Algorithms for Monitoring Gene Expression on GeneChip Probe Arrays, Technical Notes 1, Part No. 701097 Rev. 1 (2001)). This procedure generates a robust weighted mean that is relatively insensitive to outliers, even when they are extreme. Genes with a signal intensity lower than the mean array signal intensity in 2 or more of the 3 arrays in either experimental group were eliminated from the analysis. All arrays were scaled to a target intensity of 2500. To identify differentially expressed genes, each of the 3 control samples was compared with each of the 3 STZ-treated samples, resulting in 9 pairwise comparisons. […] Difference values (PM-MM) between the control and STZ-treated arrays were used to generate a one-sided p-value for each set of probes. Default boundaries between significant and not significant p-values were used (Affymetrix, Inc., New Statistical Algorithms for Monitoring Gene Expression on GeneChip Probe Arrays, Technical Notes 1, Part No. 701097 Rev. 1 (2001)). […]

CN(N=O)C(=O)N[C@H]1C(O)O[C@H](CO)[C@@H](O)[C@@H]1O (mixture of isomers) [STZ, streptozotocin]
diabetic state by blood glucose measurements [1]: diabetic
FC RIKEN cDNA 1110002E23 gene ([2]; GenBank AA000467, liver, STZ vs control mice): 2.0 fold
FC Proteasome (prosome, macropain) subunit, alpha type 4 (Psma4) mRNA ([2]; GenBank AA008321, liver, STZ vs control mice): 2.0 fold
FC X-box binding protein 1 (Xbp1) mRNA ([2]; GenBank AA016424, liver, STZ vs control mice): 2.1 fold
FC Cysteine-rich protein 2 (Csrp2) mRNA ([2]; GenBank AA028770, liver, STZ vs control mice): 2.0 fold
FC Similar to eukaryotic translation initiation factor 4 gamma, 1 (0610008L05Rik) ([2]; GenBank AA038437, liver, STZ vs control mice): 2.6 fold
FC Bifunctional aminoacyl-tRNA synthetase mRNA ([2]; GenBank AA048927, liver, STZ vs control mice): 3.6 fold
FC RIKIEN cDNA 1810034D23 gene ([2]; GenBank AA066610, liver, STZ vs control mice): 1.9 fold
FC CathepsinL (Ctsl) mRNA ([2]; GenBank AA096813, liver, STZ vs control mice): 2.5 fold
FC Poly A binding protein, cytoplasmic 1 (Pabpc1) mRNA ([2]; GenBank AA106783, liver, STZ vs control mice): 2.0 fold
FC Phosphoenolpyruvate carboxykinase 1, cytosolic (Pck1) mRNA ([2]; GenBank AA110781, liver, STZ vs control mice): 3.6 fold
FC mp72b03.rl Soares thymus cDNA clone IMAGE:574733, similar to cyclophilin ([2]; GenBank AA124572, liver, STZ vs control mice): 1.9 fold
FC Stearoyl-Coenzyme A desaturase 1 (Sed1) mRNA ([2]; GenBank AA137436, liver, STZ vs control mice): −14.0 fold
FC Cytochrome P450, 2c40 (Cyp2c40) mRNA ([2]; GenBank AA137659, liver, STZ vs control mice): −2.5 fold
FC Heat shock protein, 74 kDa, A (Hspa9A) mRNA ([2]; GenBank AA138378, liver, STZ vs control mice): 3.5 fold
FC Protease (prosome, macropain) 28 subunit, alpha (Psme1) mRNA ([2]; GenBank AA165782, liver, STZ vs control mice): 1.9 fold
FC Carbon catabolite repression 4 homolog (S. cerevisiae) (Ccr4) mRNA ([2]; GenBank AA172909, liver, STZ vs control mice): 1.8 fold
FC Erythroid differentiation regulator (Edr) mRNA ([2]; GenBank AA174883, liver, STZ vs control mice): 1.8 fold
FC Nuclear receptor coactivator 4 (Ncoa4) mRNA ([2]; GenBank AA217659, liver, STZ vs control mice): 1.8 fold
FC Argininosuccinate lyase (As1) mRNA ([2]; GenBank AA237297, liver, STZ vs control mice): 2.0 fold
FC Expressed sequence A1266885 ([2]; GenBank AA250708, liver, STZ vs control mice): −2.5 fold
FC RIKEN cDNA 2310009NO5 gene (2310009N05Rik) ([2]; GenBank AA260798, liver, STZ vs control mice): 1.9 fold
FC Isopentenyl-diphosphate delta-isomerase mRNA ([2]; GenBank AA267683, liver, STZ vs control mice): −2.0 fold
FC Activating transcription factor 5 (Atf5) mRNA ([2]; GenBank AA270796, liver, STZ vs control mice): 2.1 fold
FC Cellular repressor of E1A-stimulated genes (Creg) mRNA ([2]; GenBank AA271265, liver, STZ vs control mice): 2.0 fold
FC Splicing factor 3b, subunit 1, 155 kDa (Sf3b1) mRNA ([2]; GenBank AA277153, liver, STZ vs control mice): 1.8 fold
FC NADH dehydrogenase (ubiquinone) 1 beta subcomplex 6 mRNA ([2]; GenBank AA277720, liver, STZ vs control mice): 2.5 fold
FC vb90b12.rl Soares mouse 3NbMS cDNA clone IMAGE:764255 ([2]; GenBank AA285530, liver, STZ vs control mice): 1.9 fold
FC Ribonuclease, Rnase A family 4 (Rnase4) mRNA ([2]; GenBank AA289858, liver, STZ vs control mice): −4.6 fold
FC Splicing factor, arginine/serine-rich 5 (SRp40, HRS) (Sfrs5) mRNA ([2]; GenBank AA388848, liver, STZ vs control mice): 1.9 fold
FC Nuclear receptor coactivator 3 (Ncoa3) mRNA ([2]; GenBank AA390043, liver, STZ vs control mice): 2.1 fold
FC Sirtuin 2 (Sirt2) mRNA ([2]; GenBank AA472476, liver, STZ vs control mice): −2.0 fold
FC Retinal taurine transporter; solute carrier family 6, member 6 (Slc6a6) mRNA ([2]; GenBank AA472795, liver, STZ vs control mice): 1.9 fold
FC RAB9, member RAS oncogene family (Rab9) mRNA ([2]; GenBank AA518955, liver, STZ vs control mice): 1.9 fold
FC RIKEN cDNA 1810020N21 gene ([2]; GenBank AA538556, liver, STZ vs control mice): 2.0 fold
FC Expressed sequence AA960392 ([2]; GenBank AA592283, liver, STZ vs control mice): 1.8 fold
FC Ring finger protein 4 (Rnf4) mRNA ([2]; GenBank AA600461, liver, STZ vs control mice): 2.1 fold
FC Interferon alpha responsive gene, 15 kDa (Ifrg15-pending) mRNA ([2]; GenBank AA608036, liver, STZ vs control mice): 1.9 fold
FC RIKEN cDNA 2700059D21 gene ([2]; GenBank AA655730, liver, STZ vs control mice): 1.8 fold
FC vq87g01.r1 Knowles Solter mouse blastocyst B3 cDNA clone IMAGE: 1109328 ([2]; GenBank AA666984, liver, STZ vs control mice): 2.0 fold
FC C77421 Mouse 3.5-dpc blastocyst cDNA clone J0030G04, similar to Mouse B10.VL30LTR gene ([2]; GenBank C77421, liver, STZ vs control mice): 2.5 fold
FC Expressed sequence C79645 ([2]; GenBank C79645, liver, STZ vs control mice): 1.8 fold
FC mc25d02.rl Soares mouse cDNA clone IMAGE:349539 ([2]; GenBank W3021 1, liver, STZ vs control mice): 2.1 fold
FC ATP synthase, H+ transporting, mitochondrial F0 complex, subunit b, isoform 1 (Atp5f1) mRNA ([2]; GenBank W08392, liver, STZ vs control mice): 1.9 fold
FC Destrin (Dsn) mRNA ([2]; GenBank W08453, liver, STZ vs control mice): 1.9 fold
FC Hepatocyte growth factor activator HGFA (Hgfac) mRNA ([2]; GenBank W12681, liver, STZ vs control mice): −2.8 fold
FC mb19d12.rl Soares mouse cDNA clone IMAGE:329879, similar to ACTIN, AORTIC SMOOTH MUSCLE ([2]; GenBank W12899, liver, STZ vs control mice): −2.9 fold
FC Hepcidin antimicrobial peptide (Hamp) mRNA ([2]; GenBank W12913, liver, STZ vs control mice): −2.2 fold
FC RIKEN cDNA 1110004C05 gene ([2]; GenBank W12941, liver, STZ vs control mice): 2.7 fold
FC Golgi reassembly stacking protein 2 (Grs2-pending) mRNA ([2]; GenBank W13835, liver, STZ vs control mice): 3.5 fold
FC DEAD/H (Asp-Glu-Ala-Asp/His) box polypeptide 1 mRNA ([2]; GenBank W13878, liver, STZ vs control mice): 1.9 fold
FC Angiotensinogen (Agt) mRNA ([2]; GenBank W17473, liver, STZ vs control mice): −2.4 fold
FC Tubulin cofactor a (Tbca) mRNA ([2]; GenBank W18904, liver, STZ vs control mice): 1.8 fold
FC RIKEN cDNA 1110061M03 gene ([2]; GenBank W21013, liver, STZ vs control mice): −2.6 fold
FC RIKEN cDNA 2410038A03 gene ([2]; GenBank W30137, liver, STZ vs control mice): 1.9 fold
FC Coagulation factor XII (Hageman factor) (F12) mRNA ([2]; GenBank W34349, liver, STZ vs control mice): 2.0 fold
FC Succinate dehydrogenase complex, subunit A, flavoprotein (Fp) (Sdha) mRNA ([2]; GenBank W53390, liver, STZ vs control mice): 2.0 fold
FC RIKEN cDNA 1810030E05 gene ([2]; GenBank W64827, liver, STZ vs control mice): 2.4 fold
FC mf48c06.rl Soares mouse embryo cDNA clone IMAGE:408298 ([2]; GenBank W85397, liver, STZ vs control mice): 2.0 fold
FC Cytochrome c oxidase, subunit VIIa 3 (Cox7a3) mRNA ([2]; GenBank W91222, liver, STZ vs control mice): 2.4 fold
FC CD 81 antigen (Cd81) mRNA ([2]; GenBank W98255, liver, STZ vs control mice): −2.9 fold
expression of Cytochrome c oxidase ([2]; liver of SID mice): increased
expression of Glutathione S-transferase μ2 ([2]; liver of SID mice): increased
expression of Glutathione S-transferase π2 ([2]; liver of SID mice): increased
expression of NADH dehydrogenase 1 ([2]; liver of SID mice): increased
expression of RAB 1 ([2]; liver of SID mice): increases
expression of a proteasome subunit ([2]; liver of SID mice): Increased
expression of alcohol dehydrogenase 1 ([2]; liver of SID mice): decreases
expression of arginase 1 ([2]; liver of SID mice): increased
expression of argininosuccinate synthetase 1 ([2]; liver of SID mice): increased
expression of complement component 4 ([2]; liver of SID mice): decreases
expression of corticosteroid binding globulin ([2]; liver of SID mice): Decreased
expression of cytochrome P450, 1a2 gene ([2]; liver of SID mice): decreases
expression of cytochrome P450, 2b13 gene ([2]; liver of SID mice): decreases
expression of cytochrome P450, 2c29 gene ([2]; liver of SID mice): decreases
expression of hepatic histidine ammonia lyase ([2]; liver of SID mice): Increased
expression of hepatic mRNA for insulin-like growth factor binding protein 2 ([2]; liver of SID mice): increases
expression of inter-alpha trypsin inhibitor, heavy chain 3 ([2]; liver of SID mice): increases
expression of lactate dehydrogenase 1 ([2]; liver of SID mice): increases
expression of sorbitol dehydrogenase 1 ([2]; liver of SID mice): decreases
expression of the flavin-containing monooxygenase 5 gene ([2]; liver of SID mice): increases
expression of the gene for apolipoprotein H ([2]; liver of SID mice): increases
expression of thioether S-methyltransferase ([2]; liver of SID mice): decreases
expression of two cytochrome P450, 3a subfamily members ([2]; liver of SID mice): increases
mRNA for heat shock 70 kD protein 5 ([2]; liver of SID mice): induced
mRNA for hypoxia inducible factor 1 ([2]; liver of SID mice): induced
mRNA for prolyl 4-hydroxylase, beta polypeptide ([2]; liver of SID mice): induced
number of known genes with a change in expression ([2]; liver, control vs STZ-treated mice, more than 11,000 genes and ESTs assessed, 1.8-fold or greater): 47
